Measurements from PMC10882993, “Protecting the Achilles heel: three FolE_I-type GTP-cyclohydrolases needed for full growth of metal-resistant Cupriavidus metallidurans under a variety of conditions” (Journal of Bacteriology, 2024).
Values after ≈ are worked out from the molar mass of the structure shown. Read-outs that look alike come from different tables or passages of the source.

Legend:
Assay in all cases: microbe, parasite or virus in culture
[1] = test system: T1, Cupriavidus metallidurans AE104; set-up: growth inhibition of bacterial culture by metal chelators
T1 construct: AE104
From the text: EDTA, membrane-permeant TPEN, and DIP complex divalent transition metal cations with similar stability constants, EDTA with Cu > Ni > Zn > Co > Fe = Mn, TPEN with a similar ranking but higher stability constants, and DIP with Cu = Fe > Zn in an inverted arrangement ([43][–][45]). The ∆folE single and double mutants grew with only a slight delay compared to the parental strain AE104 in the presence of TPEN (Fig. S8), and the IC50 values for the ∆folE single mutants and TPEN were not different from that of the parent AE104 (Table S8). When the gene for the zinc importer ZupT was deleted, the IC50 values of all strains decreased below 0.5 µM TPEN, again without differences between the mutants and the ∆zupT parent (Fig. S8C). […] Due to large deviations, not much influence of TPEN on the growth of the ∆folE mutants could be measured. […] In contrast, TPEN mediated an overall decrease of metal availability. In the presence of DIP, growth of both ∆folE_IB mutants of strain AE104 was similar to their parent, but the ∆folE_IA mutant was more sensitive to DIP (Fig. S9A) with a decrease in the IC50 value from about 60 µM to 36 ± 7 µM (Table S8). The zinc content of the four strains in the presence of 25 µM DIP was similar, but the cobalt content was decreased (Table S6). […]

[2] = test system: T1, Cupriavidus metallidurans AE104; set-up: growth inhibition of bacterial culture, final turbidity in TMM medium; details: read-out: TMP,
Method: Trimethoprim and sulfonamide interfere with THF biosynthesis in steps downstream of the reaction catalyzed by the FolE_I-type enzymes. Neither substance induced an up-regulation of folE_IB1 or folE_IA (Table S2), but TMP did induce expression of pfl-glyA (Table S1). The ∆folE_IB1 mutant of strain AE104 was less resistant to trimethoprim than its wild-type parent or the other two ∆folE deletion mutants (Fig. 7A), and the IC50 for trimethoprim decreased from 4 to 3.3 mg/L (Table S9). Resistance to trimethoprim was not affected in the ∆folE_IB2 ∆folE_IA mutant with FolE_IB1 only, but it was in the two double mutants that carried a ∆folE_IB1 deletion (Fig. 7). Resistance to TMP decreased in the ∆zupT ∆folE_IB1 but not in the ∆zur ∆folE_IB1 mutant (Fig. 7B and C). […] Since TMP decreased the concentration of fTHF as shown by the up-regulation of pfl-glyA-lacZ expression, an increased folate production was needed to counteract inhibition of a later step of folate biosynthesis by TMP. This explains the need for the activity of both FolE_IA and FolE_IB1 to resist TMP inhibition. […] Final turbidity of C. metallidurans strains in medium zinc TMM containing varying concentrations of trimethoprim is shown for derivatives of strain AE104 single (panel A) and double (panel B) mutants, ∆zupT (panel C), and ∆zur single mutants (panel D). […]

[3] = test system: T1, Cupriavidus metallidurans AE104; set-up: growth inhibition of bacterial culture by oxidative stress agents; details: read-out: PQ

## c1ccc(-c2ccccn2)nc1 [DIP, dipyridyl]
[1]; read-out: DIP
  IC50: 57 ± 4 µM

## COc1cc(Cc2cnc(N)nc2N)cc(OC)c1OC [TMP, trimethoprim]
[2]
  IC50: 4 ± 0.2 µg/mL (≈ 13.8 µM)

## C[n+]1ccc(-c2cc[n+](C)cc2)cc1 [PQ, paraquat]
[3]
  IC50: 181 ± 17 µM

## c1ccc(CN(CCN(Cc2ccccn2)Cc2ccccn2)Cc2ccccn2)nc1 [TPEN, N,N,N′,N′-tetrakis(2-pyridinylmethyl)-1,2-ethanediamine]
[1]; read-out: TPEN
  IC50: 1.1 ± 0.4 µM
